Data: article PMC11651915, “Small molecule protein assembly modulators with pan-cancer therapeutic efficacy” (Open Biology, 2024)

Columns and labels:
OVCAR-5 = assay: cells; conditions: Homo sapiens, OVCAR-5, 48 h
MCF7 [1] = assay: Eurofins OncoPanel (CellTiter-Glo); assay type: cell-based; conditions: Homo sapiens, 72 h, 3 days
NCI-H226 = assay: cells; conditions: Homo sapiens, NCI-H226, 48 h
MeWo = assay: Eurofins OncoPanel (CellTiter-Glo); conditions: Homo sapiens, 72 h
SF-268 = assay: cells; conditions: Homo sapiens, SF-268, 48 h
A549 = assay: In-house cancer cell viability screen (AlamarBlue); assay type: cell-based, human; conditions: for IC50: Homo sapiens, AlamarBlue
ACHN = assay: cells; conditions: Homo sapiens, 48 h
DB = assay: Eurofins OncoPanel (CellTiter-Glo); assay type: cell-based; conditions: Homo sapiens, 72 h, 3 days
KM12 = assay: cells; conditions: Homo sapiens, KM12, 48 h
CAKI-1 = assay: cells; assay type: cell-based; conditions: Homo sapiens, NCI-60, 48 h
SF-539 = assay: cells; conditions: Homo sapiens, SF-539, 48 h
PC-3 = assay: cells; assay type: cell-based; conditions: Homo sapiens, NCI-60, 48 h
COR-L105 = assay: Eurofins OncoPanel (CellTiter-Glo); assay type: cell-based; conditions: Homo sapiens, 72 h, 3 days
MDA-MB-435 = assay: cells; assay type: cell-based; conditions: Homo sapiens, NCI-60, 48 h
BFTC-905 = assay: Eurofins OncoPanel (CellTiter-Glo); assay type: cell-based; conditions: Homo sapiens, 72 h, 3 days
786-0 = assay: cells; assay type: cell-based; conditions: Homo sapiens, NCI-60, 48 h
HT-29 = assay: In-house cancer cell viability screen (AlamarBlue); assay type: cell-based; conditions: Homo sapiens, 72 h
Hennes 20 cells = assay: High density/low density 'arrest of proliferation' assay; assay type: cell-based, Chinese hamster; conditions: Hennes 20, 72 h, AlamarBlue
[2] = system: BB5 patient biopsy derived cell line (breast adenocarcinoma); assay: BB1 and BB5 adenoma versus carcinoma screen (confocal imaging); assay type: cell-based; conditions: Homo sapiens, 60 h, percent ChromaLive negative
LNCaP C-33 = assay: In-house cancer cell viability screen (AlamarBlue); assay type: cell-based; conditions: Homo sapiens, LnCAP-C33, 72 h
RXF 393 = assay: cells; conditions: Homo sapiens, RXF 393, 48 h
[3] = system: A549 human lung cancer xenograft; assay: A549 xenograft studies; conditions: A549 xenograft, PAV-951 study, 14 days, IV; PAV-951 1.5 mg kg^−1 once daily, Gemcitabine 100 mg kg^−1 twice weekly
HOP-62 = assay: cells; assay type: cell-based; conditions: Homo sapiens, NCI-60, 48 h
NL4-3 Rluc HIV = assay: microbe, parasite or virus in culture; assay type: cell-based; conditions: Human immunodeficiency virus 1, NL43, MT2, 96 h, read-out: EC50 against HIV
HL-60(TB) = assay: cells; conditions: Homo sapiens, HL-60, 48 h
OVCAR-8 = assay: cells; conditions: Homo sapiens, OVCAR-8, 48 h
MOLT-4 = assay: cells; assay type: cell-based; conditions: Homo sapiens, NCI-60, 48 h
HS 578T = assay: cells; conditions: Homo sapiens, 48 h
UACC-62 = assay: cells; conditions: Homo sapiens, UACC-62, 48 h
UACC-257 = assay: cells; conditions: Homo sapiens, UACC-257, 48 h
PANC-1 = assay: In-house cancer cell viability screen (AlamarBlue); assay type: cell-based; conditions: Homo sapiens, 72 h
RPMI-8226 = assay: cells; assay type: cell-based; conditions: Homo sapiens, NCI-60, 48 h
[4] = system: BB1 patient biopsy derived cell line (benign adenoma); assay: BB1 and BB5 adenoma versus carcinoma screen (confocal imaging); assay type: cell-based, human; conditions: Homo sapiens, 60 h, percent ChromaLive negative
A172 = assay: Eurofins OncoPanel (CellTiter-Glo); assay type: cell-based; conditions: Homo sapiens, A 172, 72 h, 3 days
BT-549 = assay: cells; conditions: Homo sapiens, BT-549, 48 h
TK-10 = assay: cells; conditions: Homo sapiens, TK-10, 48 h
NCI-H522 = assay: cells; conditions: Homo sapiens, NCI-H522, 48 h
SR = assay: cells; conditions: Homo sapiens, 48 h
HCT-116 = assay: cells; assay type: cell-based; conditions: Homo sapiens, NCI-60, 48 h
HOP-92 = assay: cells; conditions: Homo sapiens, HOP-92, 48 h
M14 = assay: cells; assay type: cell-based; conditions: Homo sapiens, NCI-60, 48 h
MCF7 [5] = assay: cells; conditions: Homo sapiens, MCF7, 48 h
LNCaP C-33 cells = assay: Cell growth recovery assay; assay type: cell-based, human; conditions: PAV-617 0.3 µM 24 h, PAV-951 0.4 µM 6 h, followed

CC(C)CCNc1ncnc2cc(N3CCN(c4ccc5c(NCCC(C)C)ncnc5c4)CC3)ccc12 [PAV-951]
GI50 (OVCAR-5): 1080 nM
CC50 (OVCAR-5; read-out: LC50): 4830 nM
IC50 (MCF7 [1]): 1990 nM
GI50 (NCI-H226): 1760 nM
CC50 (NCI-H226; read-out: LC50): 6810 nM
IC50 (MeWo): 1180 nM
GI50 (SF-268): 217 nM
CC50 (SF-268; read-out: LC50): 2010 nM
change of potency when compound is added at the time of plating rather than 24 h later (A549; A549): increased significantly
IC50 (A549; A549 (treatment 0 h after plating)): 2160 nM
IC50 (A549; A549 (treatment 24 h after plating), 72 h): 10900 nM
GI50 (ACHN): 586 nM
CC50 (ACHN; read-out: LC50): 4280 nM
IC50 (DB): 895 nM
GI50 (KM12): 227 nM
CC50 (KM12; read-out: LC50): 3850 nM
GI50 (CAKI-1): 311 nM
GI50 (SF-539): 683 nM
CC50 (SF-539; read-out: LC50): 4530 nM
GI50 (PC-3): 399 nM
IC50 (COR-L105): 962 nM
GI50 (MDA-MB-435): 273 nM
IC50 (BFTC-905): 701 nM
GI50 (786-0): 339 nM
IC50 (HT-29): 101 nM
inhibitory effect at low (500 cells per well) versus high (15 000 cells per well) density (Hennes 20 cells): difference between their inhibitory effects on low and high density-plated Hennes 20 cells
IC50 [2]: 500 nM
IC50 (LNCaP C-33): 542 nM
GI50 (RXF 393): 448 nM
tumour growth inhibition (TGI) [3]: 72%
GI50 (HOP-62): 358 nM
EC50 (NL4-3 Rluc HIV): 660 nM
GI50 (HL-60(TB)): 269 nM
GI50 (OVCAR-8): 521 nM
CC50 (OVCAR-8; read-out: LC50): 5180 nM
GI50 (MOLT-4): 223 nM
GI50 (HS 578T): 352 nM
CC50 (HS 578T; read-out: LC50): > 100000 nM
GI50 (UACC-62): 1380 nM
CC50 (UACC-62; read-out: LC50): 5610 nM
GI50 (UACC-257): 1710 nM
CC50 (UACC-257; read-out: LC50): 5980 nM
IC50 (PANC-1): 244 nM
GI50 (RPMI-8226): 213 nM
IC50 [4]: 3350 nM
IC50 (A172): 1020 nM
GI50 (BT-549): 1590 nM
CC50 (BT-549; read-out: LC50): 6040 nM
GI50 (TK-10): 2160 nM
CC50 (TK-10; read-out: LC50): 6140 nM
GI50 (NCI-H522): 1770 nM
CC50 (NCI-H522; read-out: LC50): 6950 nM
GI50 (SR): 51.9 nM
CC50 (SR; read-out: LC50): 1900 nM
GI50 (HCT-116): 185 nM
GI50 (HOP-92): 1230 nM
CC50 (HOP-92; read-out: LC50): 6220 nM
GI50 (M14): 533 nM
GI50 (MCF7 [5]): 177 nM
CC50 (MCF7 [5]; read-out: LC50): 924 nM
recovery of cell growth after removal of compound (LNCaP C-33 cells): did not recover
